Experiment [1] has as its target T1, SARS-CoV-2 PLpro (nsp3 1564–1878) (Severe acute respiratory syndrome coronavirus 2, UniProt P0DTD1). The experiment is described as follows: biochemical. Further details: FRET-quenched peptide (Pro3) cleavage by PLpro, 10 min pre-incubation, slope over 20 min, normalised to no-compound control. To be noted: low concentration screen, read-out: % of control remaining.

For experiment [2], the target named is T1, SARS-CoV-2 PLpro (nsp3 1564–1878). Put plainly: biochemical. Further details: FRET-quenched peptide (Pro3) cleavage by PLpro, 10 min pre-incubation, slope over 20 min, normalised to no-compound control. The following applies: high concentration screen, read-out: % of control remaining.

This passage reports remaining activity results from paper PMC8286840, “Identifying SARS-CoV-2 antiviral compounds by screening for small molecule inhibitors of Nsp3 papain-like protease” (Biochemical Journal, 2021).

Structures can show the parent of a compound that is named as a salt. Where two headings read alike, the source gives them in different places.

On to `Nc1nc2c(ncn2COCCO)c(=O)[nH]1` [Acyclovir], for which the values for the remaining activity at 1.25 µM in experiment [1] (Well no.=159) and in experiment [1] (Well no.=8000) were 104% and 92.6%, respectively. Further, the remaining activity at 3.75 µM came to 103% in experiment [2] (Well no.=159) and 89.5% in experiment [2] (Well no.=8000).
On to `Oc1ccc2c3c1O[C@H]1c4[nH]c5ccccc5c4C[C@@]4(O)[C@@H](C2)N(CC2CC2)CC[C@]314` [Naltrindole.HCl], for which the remaining activity at 1.25 µM in experiment [1] (Well no.=1644) is 106%. The remaining activity at 3.75 µM in experiment [2] (Well no.=1644) came to 104%.
With `CN1CCC(=C2c3ccccc3CC(=O)c3sccc32)CC1` [Ketotifen fumarate], the remaining activity at 1.25 µM in experiment [1] (Well no.=1069) was 101%. In addition, in experiment [2] (Well no.=1069), the remaining activity at 3.75 µM turned out to be 95.3%.
As for `CN(C)C(=O)C(CCN1CCC(O)(c2ccc(Cl)cc2)CC1)(c1ccccc1)c1ccccc1` [Loperamide (hydrochloride)], the remaining activity at 1.25 µM in experiment [1] (Well no.=7427) is 97.7%. For the same molecule, the remaining activity at 3.75 µM in experiment [2] (Well no.=7427) was determined as 101%.
`C=CCc1cc(OC)c(O)c(C(=O)NCCO)c1` [Alibendol]: in experiment [1] (Well no.=5002), the remaining activity at 1.25 µM turned out to be 101%. Also, the remaining activity at 3.75 µM in experiment [2] (Well no.=5002) turned out to be 94.9%.
With `OC[C@H]1O[C@@H](Oc2cc(O)cc(/C=C/c3ccc(O)cc3)c2)[C@H](O)[C@@H](O)[C@@H]1O` [Polydatin], the remaining activity at 1.25 µM in experiment [1] (Well no.=6304) was 100%; in experiment [1] (Well no.=8196), 102%. For the same molecule, the results for the remaining activity at 3.75 µM in experiment [2] (Well no.=6304) and in experiment [2] (Well no.=8196) were 98.5% and 97.4%, respectively.
Consider `CCCNS(=O)(=O)Nc1ncnc(OCCOc2ncc(Br)cn2)c1-c1ccc(Br)cc1` [Macitentan], for which the figures for the remaining activity at 1.25 µM in experiment [1] (Well no.=4830) and in experiment [1] (Well no.=8253) were 97.6% and 97.3%, respectively. Moreover, the results for the remaining activity at 3.75 µM in experiment [2] (Well no.=4830) and in experiment [2] (Well no.=8253) were 97.8% and 90.3%, respectively.
For the molecule `O=C(O[C@@H]1C[C@@H]2C[C@H]3C[C@H](C1)N2CC3=O)c1c[nH]c2ccccc12` [Dolasetron], the remaining activity at 1.25 µM in experiment [1] (Well no.=1870) amounted to 96.1%; in experiment [1] (Well no.=6235), 106%. For the same molecule, the figures for the remaining activity at 3.75 µM in experiment [2] (Well no.=1870) and in experiment [2] (Well no.=6235) were 96.3% and 105%, respectively.
With `O=C1c2cccc(O)c2C(=O)c2c(O)cc(CO)cc21` [Aloe-emodine], in experiment [1] (Well no.=3156), the remaining activity at 1.25 µM amounted to 105%. For the same molecule, in experiment [2] (Well no.=3156), the remaining activity at 3.75 µM came out at 102%.
On to `CN1[C@@H](CC(=O)c2ccccc2)CCC[C@H]1C[C@H](O)c1ccccc1` [alpha-Lobeline hydrochloride], for which the remaining activity at 1.25 µM in experiment [1] (Well no.=1025) is 98.8%. Moreover, the remaining activity at 3.75 µM in experiment [2] (Well no.=1025) amounted to 102%.
Consider `CCC(NC(C)C)C(O)c1ccc(O)c2[nH]c(=O)ccc12` (stereo not shown) [Procaterol.HCl], for which the remaining activity at 1.25 µM in experiment [1] (Well no.=1745) was 99.6%. Moreover, the remaining activity at 3.75 µM in experiment [2] (Well no.=1745) was found to be 101%.
In the case of `CNC(=C[N+](=O)[O-])NCCSCc1ccc(CN(C)C)o1` [Ranitidine (hydrochloride)], in experiment [1] (Well no.=6609), the remaining activity at 1.25 µM was 102%. The remaining activity at 3.75 µM in experiment [2] (Well no.=6609) worked out at 104%.
As for `C#CC(N)CCC(=O)O` (stereo not shown) [gamma-Acetylinic GABA], in experiment [1] (Well no.=258), the remaining activity at 1.25 µM came out at 94%. In experiment [2] (Well no.=258), the remaining activity at 3.75 µM stood at 94.8%.
On to `COc1cccc(Nc2c(C(N)=O)cnc3c(C)cc(S(=O)(=O)c4cccc(C(=O)N(C)C)c4)cc23)c1` [GSK256066], for which the remaining activity at 1.25 µM in experiment [1] (Well no.=5300) turned out to be 95.5%. Also, the remaining activity at 3.75 µM in experiment [2] (Well no.=5300) stood at 98.4%.
As to `O=[N+]([O-])c1ccc(O[C@@H]2O[C@H](CO)[C@@H](O)[C@H](O)[C@H]2F)c([N+](=O)[O-])c1` [2,4-Dinitrophenyl 2-fluoro-2-deoxy-beta-D-glucopyranoside], in experiment [1] (Well no.=637), the remaining activity at 1.25 µM stood at 100%. In addition, the remaining activity at 3.75 µM in experiment [2] (Well no.=637) stood at 101%.
In the case of `COc1cc(C(O)C(=O)O)ccc1O` (racemic), in experiment [1] (Well no.=606), the remaining activity at 1.25 µM was 96%. Also, the remaining activity at 3.75 µM in experiment [2] (Well no.=606) came to 97.2%.
For the molecule `CC(C)NCC(O)COc1ccc(COCCOC(C)C)cc1` (stereo not shown) [Bisoprolol], in experiment [1] (Well no.=5109), the remaining activity at 1.25 µM worked out at 96.8%. Further, the remaining activity at 3.75 µM in experiment [2] (Well no.=5109) was 98.6%.
Consider `CC(O)(P(=O)(O)O)P(=O)(O)O` [Etidronate], for which the remaining activity at 1.25 µM in experiment [1] (Well no.=2068) was 96.4%; in experiment [1] (Well no.=8826), 85.3%. For the same molecule, the remaining activity at 3.75 µM worked out at 97.5% in experiment [2] (Well no.=2068) and 87.6% in experiment [2] (Well no.=8826).
`C/C(=C/C(=O)O)C(=O)O` [Citraconic acid]: the remaining activity at 1.25 µM in experiment [1] (Well no.=6261) turned out to be 102%. In addition, in experiment [2] (Well no.=6261), the remaining activity at 3.75 µM turned out to be 89.6%.
Consider `CN(C)CCC(c1ccc(Br)cc1)c1ccccn1` (racemic), for which, in experiment [1] (Well no.=219), the remaining activity at 1.25 µM is 97.7%. Also, in experiment [2] (Well no.=219), the remaining activity at 3.75 µM is 97.9%.
On to `CN(C)CCC[C@@]1(c2ccc(F)cc2)OCc2cc(C#N)ccc21` [Escitalopram Oxalate], for which the remaining activity at 1.25 µM in experiment [1] (Well no.=5128) was 109%. Also, the remaining activity at 3.75 µM in experiment [2] (Well no.=5128) was determined as 107%.
As for `Clc1ccc2c(c1)N=C(N1CCNCC1)c1ccccc1N2` [N-Desmethylclozapine], the remaining activity at 1.25 µM in experiment [1] (Well no.=7229) amounted to 100%. Further, in experiment [2] (Well no.=7229), the remaining activity at 3.75 µM is 98.9%.
In the case of `CC(C)(C)n1nc(-c2ccc(Cl)cc2)c2c(N)ncnc21` [PP 2 - 3-(4-chlorophenyl) 1-(1,1-dimethylethyl)-1H-pyrazolo[3,4-d]pyrimidin-4-amine], the remaining activity at 1.25 µM in experiment [1] (Well no.=2428) came out at 98.1%. The remaining activity at 3.75 µM in experiment [2] (Well no.=2428) worked out at 101%.
For `FC(F)(F)c1ccccc1-n1ccnc1` [1-[2-(Trifluoromethyl)phenyl]imidazole], in experiment [1] (Well no.=1533), the remaining activity at 1.25 µM worked out at 89.9%. Besides, the remaining activity at 3.75 µM in experiment [2] (Well no.=1533) worked out at 90.7%.
Turning to `CCCCC/C=C\C/C=C\C/C=C\C/C=C\CCCC(=O)O[C@@H](CO)COC(=O)CCCCCCCCCCCCCCCCC` [1-Stearoyl-2-arachidonoyl-glycerol], the remaining activity at 1.25 µM in experiment [1] (Well no.=4482) amounted to 95.9%. In addition, the remaining activity at 3.75 µM in experiment [2] (Well no.=4482) stood at 96.2%.
Take `CC(C)(C)c1cc(C=C(C#N)C#N)cc(C(C)(C)C)c1O` [Tyrphostin A9]: in experiment [1] (Well no.=1426), the remaining activity at 1.25 µM turned out to be 99.8%. The remaining activity at 3.75 µM in experiment [2] (Well no.=1426) was determined as 101%.
For `COc1cc(Nc2ncc3c(n2)-c2ccc(Cl)cc2C(c2c(F)cccc2OC)=NC3)ccc1C(=O)O` [Alisertib], in experiment [1] (Well no.=6164), the remaining activity at 1.25 µM worked out at 103%. For the same molecule, the remaining activity at 3.75 µM in experiment [2] (Well no.=6164) came out at 103%.
As to `CC(C)(C)NCC(O)c1cc(O)cc(O)c1` (stereo not shown) [Terbutaline hemisulfate], the remaining activity at 1.25 µM in experiment [1] (Well no.=1189) turned out to be 98.5%. Also, the remaining activity at 3.75 µM in experiment [2] (Well no.=1189) came out at 100%.
With `C[C@H]1COc2c(C3(N)CC3)c(F)cc3c(=O)c(C(=O)O)cn1c23` [Pazufloxacin], the remaining activity at 1.25 µM in experiment [1] (Well no.=2095) stood at 97.7%. Besides, the remaining activity at 3.75 µM in experiment [2] (Well no.=2095) was determined as 98.2%.
Regarding `CC1Cc2ccccc2N1NC(=O)c1ccc(Cl)c(S(N)(=O)=O)c1` (stereo not shown) [Indapamide], the remaining activity at 1.25 µM in experiment [1] (Well no.=2224) came to 98.6%. The remaining activity at 3.75 µM in experiment [2] (Well no.=2224) was found to be 103%.
